The values that follow come from US20220273683A1, “BORON-CONTAINING SMALL MOLECULES” (Bill & Melinda Gates Foundation, priority 2016, published 2022).

By MIC is commonly meant the smallest concentration in the dilution series that meets the test's criterion for growth inhibition. A lower MIC goes with inhibition by little substance.

Each structure is given as a SMILES string. Values after ≈ are worked out from the molar mass of the structure shown.

The test system of test [1] is Staphylococcus aureus, MRSA (ATCC 33591). Kind of test: Antibacterial MIC assay (microbroth dilution, CLSI). As to conditions: 35° C., 16-20 hours. Format: cell-based. From the text:
(§1) All MIC testing of bacteria followed the Clinical and Laboratory Standards Institute (CLSI) guidelines for antimicrobial testing of aerobic bacteria (Methods for Dilution Antimicrobial Susceptibility Tests for Bacteria that Grow Aerobically; Approved Standard—Tenth Edition, M07-A10; Performance Standards for Antimicrobial Susceptibility Testing; Twenty-fifth Informational Supplement, M100-S25).
(§2) Briefly, the microbroth dilution MIC method was used to quantitatively measure the in vitro antibacterial activity of a compound against a given bacterial isolate. The following bacterial strains were evaluated: Staphylococcus aureus, MRSA (ATCC 33591) and Streptococcus pneumoniae (ATCC 49619). Bacteria were grown in cation-adjusted Mueller-Hinton broth, with additions as required per species growth requirements (e.g. 3% lysed horse blood for fastidious organisms such as S. pneumoniae). A direct colony suspension in saline was prepared from colonies on an overnight agar plate to achieve a turbidity equivalent to 0.5 McFarland standard, which was subsequently diluted into the assay plate to achieve 5×10^5 CFU/mL. Assays plates were prepared by 2-fold dilution of compound across the plate and included a positive growth control.

Test [2] concerns Streptococcus pneumoniae (ATCC 49619). The test is described as above. Format: cell-based. The note with it: 35° C., 16-20 hours; for MIC Streptococcus pneumoniae (ATCC 49619): 3% lysed horse blood.
Description: as §1, §2

As for `C[C@@H]1CC[C@@]23CCC(=O)[C@H]2[C@]1(C)[C@H](OC(=O)COc1ccc2c(c1F)B(O)OC2)C[C@@](C)(CCC(=O)N1CCC(O)C1)[C@@H](O)[C@@H]3C` (stereo partly drawn) [Compound 7, (3aR,4R,5R,7R,8S,9R,9aS,12R)-8-hydroxy-7-(3-(3-hydroxypyrrolidin-1-yl)-3-oxopropyl)-4,7,9,12-tetramethyl-3-oxodecahydro-4,9a-propanocyclopenta[8]annulen-5-yl2-((7-fluoro-1-hydroxy-1,3-dihydrobenzo[c][1,2]oxaborol-6-yl)oxy)acetate], in test [1], the “MIC Staphylococcus aureus, MRSA (ATCC 33591)” value (from here on “MIC Staphylococcus aureus”) is “C (4-32 is C)”. Besides, in test [2], the “MIC Streptococcus pneumoniae (ATCC 49619)” value (“MIC Streptococcus pneumoniae” below) is “B (0.5-2 is B)”.
For `C[C@@H]1CC[C@@]23CCC(=O)[C@H]2[C@]1(C)[C@H](OC(=O)COc1ccc2c(c1F)B(O)OC2)C[C@@](C)(CCC(=O)N1CC[C@H](O)C1)[C@@H](O)[C@@H]3C` [Compound 8, (3aR,4R,5R,7R,8S,9R,9aS,12R)-8-hydroxy-7-(3-((S)-3-hydroxypyrrolidin-1-yl)-3-oxopropyl)-4,7,9,12-tetramethyl-3-oxodecahydro-4,9a-propanocyclopenta[8]annulen-5-yl2-((7-fluoro-1-hydroxy-1,3-dihydrobenzo[c][1,2]oxaborol-6-yl)oxy)acetate], in that order: “C (4-32 is C)” and “B (0.5-2 is B)”.
For `C[C@@H]1CC[C@@]23CCC(=O)[C@H]2[C@]1(C)[C@H](OC(=O)COc1ccc2c(c1F)B(O)OC2)C[C@@]1(C)CC(O)O[C@H]1[C@@H]3C` (stereo partly drawn) [Compound 9, (3aS,5R,6R,6aR,9aS,10R,10aS,13R)-2-hydroxy-3a,6,10,13-tetramethyl-7-oxododecahydro-6,9a-propanocyclopenta[6,7]cycloocta[1,2-b]furan-5-yl2-((7-fluoro-1-hydroxy-1,3-dihydrobenzo[c][1,2]oxaborol-6-yl)oxy)acetate], in that order: “C (4-32 is C)” and “C (4-32 is C)”.
The like results for `C[C@@H]1CC[C@@]23CCC(=O)[C@H]2[C@]1(C)[C@H](OC(=O)COc1ccc2c(c1F)B(O)OC2)C[C@@](C)(Cc1ccccc1)[C@@H](O)[C@@H]3C` [Compound 10, (3aR,4R,5R,7R,8S,9R,9aS,12R)-7-benzyl-8-hydroxy-4,7,9,12-tetramethyl-3-oxodecahydro-4,9a-propanocyclopenta[8]annulen-5-yl2-((7-fluoro-1-hydroxy-1,3-dihydrobenzo[c][1,2]oxaborol-6-yl)oxy)acetate] were, in that order, “A (MIC of ≤0.25 is A)” and “B (0.5-2 is B)”.
`C[C@@H]1CC[C@@]23CCC(=O)[C@H]2[C@]1(C)[C@H](OC(=O)COc1ccc2c(c1F)B(O)OC2)C[C@@](C)(CCl)[C@@H](O)[C@@H]3C` [Compound 11, (3aR,4R,5R,7R,8S,9R,9aS,12R)-7-(chloromethyl)-8-hydroxy-4,7,9,12-tetramethyl-3-oxodecahydro-4,9a-propanocyclopenta[8]annulen-5-yl2-((7-fluoro-1-hydroxy-1,3-dihydrobenzo[c][1,2]oxaborol-6-yl)oxy)acetate]: the “MIC Staphylococcus aureus” value in test [1] is recorded as “A (MIC of ≤0.25 is A)”. Also, in test [2], the “MIC Streptococcus pneumoniae” value is on record as “B (0.5-2 is B)”.
For `C[C@@H]1CC[C@@]23CCC(=O)[C@H]2[C@]1(C)[C@H](OC(=O)COc1ccc2c(c1F)B(O)OC2)C[C@@](C)(/C=C/C(N)=O)[C@@H](O)[C@@H]3C` [Compound 14, (3aR,4R,5R,7S,8S,9R,9aS,12R)-7-((E)-3-amino-3-oxoprop-1-en-1-yl)-8-hydroxy-4,7,9,12-tetramethyl-3-oxodecahydro-4,9a-propanocyclopenta[8]annulen-5-yl2-((7-fluoro-1-hydroxy-1,3-dihydrobenzo[c][1,2]oxaborol-6-yl)oxy)acetate], the “MIC Staphylococcus aureus” value in test [1] is recorded as “B (0.5-2 is B)”. In test [2], the “MIC Streptococcus pneumoniae” value is on record as “B (0.5-2 is B)”.
With `CNC(=O)/C=C/[C@]1(C)C[C@@H](OC(=O)COc2ccc3c(c2F)B(O)OC3)[C@]2(C)[C@H](C)CC[C@]3(CCC(=O)[C@H]32)[C@@H](C)[C@@H]1O` [Compound 15, (3aR,4R,5R,7S,8S,9R,9aS,12R)-8-hydroxy-4,7,9,12-tetramethyl-7-((E)-3-(methylamino)-3-oxoprop-1-en-1-yl)-3-oxodecahydro-4,9a-propanocyclopenta[8]annulen-5-yl2-((7-fluoro-1-hydroxy-1,3-dihydrobenzo[c][1,2]oxaborol-6-yl)oxy)acetate], in test [1], the “MIC Staphylococcus aureus” value is “B (0.5-2 is B)”. Besides, the “MIC Streptococcus pneumoniae” value in test [2] is “B (0.5-2 is B)”.
In the case of `CONC(=O)/C=C/[C@]1(C)C[C@@H](OC(=O)COc2ccc3c(c2F)B(O)OC3)[C@]2(C)[C@H](C)CC[C@]3(CCC(=O)[C@H]32)[C@@H](C)[C@@H]1O` [Compound 16, (3aR,4R,5R,7S,8S,9R,9aS,12R)-8-hydroxy-7-((E)-3-(methoxyamino)-3-oxoprop-1-en-1-yl)-4,7,9,12-tetramethyl-3-oxodecahydro-4,9a-propanocyclopenta[8]annulen-5-yl2-((7-fluoro-1-hydroxy-1,3-dihydrobenzo[c][1,2]oxaborol-6-yl)oxy)acetate], in test [1], the “MIC Staphylococcus aureus” value was “C (4-32 is C)”. Besides, the “MIC Streptococcus pneumoniae” value in test [2] is “B (0.5-2 is B)”.
With `C[C@@H]1CC[C@@]23CCC(=O)[C@H]2[C@]1(C)[C@H](OC(=O)COc1ccc2c(c1F)B(O)OC2)C[C@@](C)(/C=C/C(=O)NNC(=O)OC(C)(C)C)[C@@H](O)[C@@H]3C` [Compound 17, tert-butyl 2-((E)-3-((3aR,4R,5R,7S,8S,9R,9aS,12R)-5-(2-((7-fluoro-1-hydroxy-1,3-dihydrobenzo[c][1,2]oxaborol-6-yl)oxy)acetoxy)-8-hydroxy-4,7,9,12-tetramethyl-3-oxodecahydro-4,9a-propanocyclopenta[8]annulen-7-yl)acryloyl)hydrazine-1-carboxylate], the MIC in test [1] (Staphylococcus aureus) lay within 4 to 32 µg/mL (≈ 5.83 to 46.6 µM); in test [2] (Streptococcus pneumoniae, ATCC49619, 3% lysed horse blood) it was 0.5 to 2 µg/mL (≈ 0.728 to 2.91 µM).
Regarding `C[C@@H]1CC[C@@]23CCC(=O)[C@H]2[C@]1(C)[C@H](OC(=O)COc1ccc2c(c1F)B(O)OC2)C[C@@](C)(/C=C/C(=O)NN)[C@@H](O)[C@@H]3C` [Compound 18, (3aR,4R,5R,7S,8S,9R,9aS,12R)-7-((E)-3-hydrazinyl-3-oxoprop-1-en-1-yl)-8-hydroxy-4,7,9,12-tetramethyl-3-oxodecahydro-4,9a-propanocyclopenta[8]annulen-5-yl2-((7-fluoro-1-hydroxy-1,3-dihydrobenzo[c][1,2]oxaborol-6-yl)oxy)acetate], in test [1], the “MIC Staphylococcus aureus” value is “C (4-32 is C)”. Further, the “MIC Streptococcus pneumoniae” value in test [2] is listed as “B (0.5-2 is B)”.
For `CC[C@]1(C)C[C@@H](OC(=O)COc2ccc3c(c2F)B(O)OC3)[C@]2(C)[C@H](C)CC[C@]3(CCC(=O)[C@H]32)[C@@H](C)[C@@H]1O` [Compound 19, (3aR,4R,5R,7R,8S,9R,9aS,12R)-7-ethyl-8-hydroxy-4,7,9,12-tetramethyl-3-oxodecahydro-4,9a-propanocyclopenta[8]annulen-5-yl2-((7-fluoro-1-hydroxy-1,3-dihydrobenzo[c][1,2]oxaborol-6-yl)oxy)acetate], in that order: “A (MIC of ≤0.25 is A)” and “B (0.5-2 is B)”.
For `C=CC[C@]1(C)C[C@@H](OC(=O)COc2ccc3c(c2F)B(O)OC3)[C@]2(C)[C@H](C)CC[C@]3(CCC(=O)[C@H]32)[C@@H](C)[C@@H]1O` [Compound 21, (3aR,4R,5R,7R,8S,9R,9aS,12R)-7-allyl-8-hydroxy-4,7,9,12-tetramethyl-3-oxodecahydro-4,9a-propanocyclopenta[8]annulen-5-yl2-((7-fluoro-1-hydroxy-1,3-dihydrobenzo[c][1,2]oxaborol-6-yl)oxy)acetate], in that order: “A (MIC of ≤0.25 is A)” and “B (0.5-2 is B)”.
For `C#CC[C@]1(C)C[C@@H](OC(=O)COc2ccc3c(c2F)B(O)OC3)[C@]2(C)[C@H](C)CC[C@]3(CCC(=O)[C@H]32)[C@@H](C)[C@@H]1O` [Compound 22, (3aR,4R,5R,7R,8S,9R,9aS,12R)-8-hydroxy-4,7,9,12-tetramethyl-3-oxo-7-(prop-2-yn-1-yl)decahydro-4,9a-propanocyclopenta[8]annulen-5-yl2-((7-fluoro-1-hydroxy-1,3-dihydrobenzo[c][1,2]oxaborol-6-yl)oxy)acetate], in that order: “A (MIC of ≤0.25 is A)” and “B (0.5-2 is B)”.
`C[C@@H]1CC[C@@]23CCC(=O)[C@H]2[C@]1(C)[C@H](OC(=O)COc1ccc2c(c1F)B(O)OC2)C[C@@](C)(CO)[C@@H](O)[C@@H]3C` [Compound 23, (3aR,4R,5R,7S,8S,9R,9aS,12R)-8-hydroxy-7-(hydroxymethyl)-4,7,9,12-tetramethyl-3-oxodecahydro-4,9a-propanocyclopenta[8]annulen-5-yl2-((7-fluoro-1-hydroxy-1,3-dihydrobenzo[c][1,2]oxaborol-6-yl)oxy)acetate]: in test [1], the “MIC Staphylococcus aureus” value is recorded as “A (MIC of ≤0.25 is A)”. For the same compound, in test [2], the “MIC Streptococcus pneumoniae” value is reported as “C (4-32 is C)”.
